# According to patent US12042486B2, “Use of bulleyaconitine A” (YUNNAN HAOPY PHARMACEUTICALS LTD, priority 2018, dated 2024):
# Several values for one entry are separate records, joined by “and”; a condition that tells them apart may be missing. Equal entries are not always repeated.
# How the values were obtained:
# Assay type in all cases: in vivo, mouse
# [1] = tested on: acute itch caused by histamine; experiment: Acute itch model: scratching of mice after subcutaneous histamine, BLA given intragastrically 2 h before; details: for Number of scratching in mouse in the histamine group (single animals): between 2 and 2.5 hours after BLA (30 min), individual mouse; for Number of scratching in mouse in the histamine group, average number: 30 min, solvent group 36.56667
# Source text: (§1) Researches over the years have shown that itch is mainly transmitted by two types of C fibers, with one sensitive to histamine and the other to chloroquine. Therefore, the scratching response of animals caused by subcutaneous injection of histamine or chloroquine is internationally recognized as an acute itch model. The present disclosure is aimed to investigate whether the intragastric administration of bulleyaconitine A (BLA) can inhibit acute itch caused by histamine or chloroquine.
# (§2) 6-8 weeks old C57 mice were employed in experiments (body weight of 17-20 grams, from the Experimental Animal Center of Sun Yat-Sen University). The mice were randomly divided into four groups, namely solvent+histamine control group, BLA+histamine group, solvent+chloroquine control group and BLA+chloroquine group. For the convenience of subcutaneous injection and observation of scratching, the hair around the neck and back (at least 3×5 cm) was shaved off under temporary anesthesia with isoflurane three days before the start of the experiments. The control group was given a subcutaneous injection of 50 μl of histamine (2 mg/ml) or chloroquine (4 mg/ml), with an intragastric administration of a solvent (carboxymethyl cellulose) 2 hours before the injection. The experiment group was given an intragastric administration of BLA with different dosages (0.125, 0.25 and 0.5 mg/kg), 2 hours before the injection of histamine or chloroquine. The BLA was administered 2 hours in advance, because it needs 1.5-2 hours for BLA to take effect from its intragastric administration. The number of scratching in each group was counted within 30 minutes for comparison, because the acute scratching response induced by histamine or chloroquine subsided 30 minutes later after drug injection as shown by previous studies.
# (§3) During the recording in experiment, the mice were placed in separate, transparent acrylic boxes having a size of 15×15×20 cm each, and with two small openings at top of each box to allow air to circulate. The scratching behavior was recorded as video by a camera, which was placed above mouse because their behaviors of scratching their back or neck mostly happen in an angle of view directly opposite to their upper back.
# (§4) In order to minimize attentional shift and eliminate tension as much as possible, each transparent box was supplied with a small amount of padding, to absorb any urine excreted from the mouse. The ambient temperature was kept at 23-27° C., and additionally all the staff were asked to leave during the recording to keep the experimental environment quiet. The experiment was carried out between 9:00-14:00 h. To acclimatize the animals to the test environment, the mouse had been acclimatized in the transparent box for one hour at 9:00 and 13:00 every day since two days before the formal experiment. Because the scratching of a mice often happens quickly, the action from mice starting to scratch its neck or back by its hind paw until the hind paw hitting on the ground or being put into its mouth to clean the dander is taken as one scratching behavior.
# (§5) Statistical methods: the number of scratching was represented by average value±standard deviation, and Turkey test was employed to compare the difference between different groups.
# (§6) Solution preparation and application method: 0.05 g of BLA was weighed and dissolved in 1000 ml of 0.5% sodium carboxymethyl cellulose solution. Histamine and chloroquine were prepared with 0.9% sterile saline, to make a dosage of histamine 100 μg and chloroquine 200 μg. To minimize the skin injure at the injection site, a thinner needle in 0.3 ml for insulin was connected to the needle port of the microinjector to reduce injure to mouse.
# [2] = tested on: acute itch caused by chloroquine; experiment: Acute itch model: scratching of mice after subcutaneous chloroquine, BLA given intragastrically 2 h before; details: for Number of scratching in mouse in the chloroquine group (single animals): between 2 and 2.5 hours after BLA (30 min), individual mouse; for Number of scratching in mouse in the chloroquine group, average number: 30 min, solvent group 92.565556
# Source text: as §1, §2, §3, §4, §5, §6
# [3] = Observation of drowsiness or other side effects in mice of the itch experiments
# Source text: as §2
# BLA inhibited the itch caused by histamine or chloroquine in a manner of depending on the dosage of intragastric administration.
# [4] = 0.5 mg/kg intragastric, P<0.001 vs solvent group
# [5] = oral administration, 0.125-0.5 mg/kg
smiles,measurement,setting,value
"CCN1C[C@]2(COC)CC[C@H](OC)[C@]34C1[C@H]([C@H](OC)[C@H]23)[C@@]1(OC(C)=O)C[C@H](OC)[C@]2(O)C[C@@H]4[C@@H]1[C@H]2OC(=O)c1ccc(OC)cc1 [BLA, Bulleyaconitine A]",Number of scratching in mouse in the histamine group (single animals),[1]; 0.125 mg/kg BLA intragastric + histamine s.c.,22 and 33 and 0 and 18 (2×) and 47 and 43 (3×) and 77 and 60 and 46 (2×) and 42 and 16 and 21 and 87 and 26 and 17 and 38 (3×) and 37 and 3 and 84 and 35 and 64 and 52 and 6 and 25
same,"Number of scratching in mouse in the histamine group, average number","[1]; 0.125 mg/kg BLA intragastric + histamine, n=30",37.5
same,Inhibition of itching caused by histamine (in words),[1]; 0.125 mg/kg intragastric,did not inhibit
same,"Number of scratching in mouse in the histamine group, average number","[1]; 0.25 mg/kg BLA intragastric + histamine, n=38",24.76
same,Inhibition of scratching response caused by histamine (in words),"[1]; 0.25 mg/kg intragastric, P<0.05 vs solvent group",significantly inhibited
same,Number of scratching in mouse in the histamine group (single animals),[1]; 0.5 mg/kg BLA intragastric + histamine s.c.,0 (12×) and 50 and 38 and 48 and 26
same,"Number of scratching in mouse in the histamine group, average number","[1]; 0.5 mg/kg BLA intragastric + histamine, n=16",10.1325
same,Inhibition of acute itch caused by histamine (in words),[1]; [4],completely inhibited
same,Dose dependence of inhibition of itching caused by histamine,[1]; [5],in a dosage-dependent manner
same,Number of scratching in mouse in the chloroquine group (single animals),[2]; 0.125 mg/kg BLA intragastric + chloroquine s.c.,29 and 70 and 90 and 31 and 115 and 185 and 89 and 40 and 130 and 23 and 197 and 24 (2×) and 53 and 10 and 182 and 27 and 26 and 138 and 48 and 41 and 62 and 34 and 93 and 45
same,"Number of scratching in mouse in the chloroquine group, average number","[2]; 0.125 mg/kg BLA intragastric + chloroquine, n=25",72.24
same,Inhibition of acute itch caused by chloroquine (in words),"[2]; 0.125 mg/kg intragastric, P>0.05, not statistically significant",only had slightly inhibitory effect
same,Number of scratching in mouse in the chloroquine group (single animals),[2]; 0.25 mg/kg BLA intragastric + chloroquine s.c.,43 and 75 (2×) and 136 and 0 (3×) and 33 and 101 and 25 (2×) and 38 and 26 and 30 and 78 (3×) and 34 and 37 and 10 and 64 and 118 and 53 and 17 and 23 and 143 and 80 and 47
same,"Number of scratching in mouse in the chloroquine group, average number","[2]; 0.25 mg/kg BLA intragastric + chloroquine, n=28",52.39
same,Inhibition of scratching response caused by chloroquine (in words),"[2]; 0.25 mg/kg intragastric, P<0.01 vs solvent group",significantly inhibited
same,Number of scratching in mouse in the chloroquine group (single animals),[2]; 0.5 mg/kg BLA intragastric + chloroquine s.c.,0 (13×) and 27 and 20 and 23
same,"Number of scratching in mouse in the chloroquine group, average number","[2]; 0.5 mg/kg BLA intragastric + chloroquine, n=16",4.3875
same,Inhibition of acute itch caused by chloroquine (in words),[2]; [4],completely inhibited
same,Dose dependence of inhibition of itching caused by chloroquine,[2]; [5],in a dosage-dependent manner
same,Drowsiness or other side effects in mouse,[3]; 0.125 mg/kg intragastric,no drowsiness or other side effects in mouse was observed
same,Drowsiness or other side effects in mouse,[3]; 0.25 mg/kg intragastric,no drowsiness or other side effects in mouse was observed
same,Drowsiness in mouse,[3]; 0.5 mg/kg intragastric,drowsiness in mouse was observed
